The values that follow come from US9458135B2, “Dihydroquinoline-2-one derivatives” (Hoffmann-La Roche Inc., priority 2014, dated 2016).

The subject of assay [1] is rat model of chronic kidney disease. The conditions noted are these: cited from earlier work; for plasma aldosterone: FAD286 following 4 weeks of treatment, spironolactone at 4 and 8 weeks; for renal effects (albuminuria, azotemia, renovascular hypertrophy, glomerular injury, PAI-1 and osteopontin mRNA, tubulointerstitial fibrosis): angiotensin II and high salt treatment.

Assay [2] relates to rats with experimental heart failure. The following applies: cited from earlier work.
Assay [3] deals with patients with primary aldosteronism. The following applies: cited from earlier work.
Another assay concerns the target human CYP11B2 (Homo sapiens (Human), UniProt P19099). Kind of assay: G-402 cellular enzyme assay, human CYP11B2 (aldosterone release, HTRF). Type of assay: cell-based. The conditions noted are these: G-402 cells expressing human CYP11B2; 1 μM Deoxycorticosterone. The text has this:
(§1) Herein we identified the use of the G-402 cell line as a host cell to ectopically express (transiently or stably) enzymes of the CYP11 family. Specifically we developed stable G-402 cells expressing ectopically human CYP11B1, human CYP11B2, human CYP11A1, cynmolgus CYP11B1 or cynomolgus CYP11B2 enzyme activity. Importantly the identified cell line G-402 expresses co-factors (adrenodoxin and adrenodoxin reductase) important for the activity of the CYP11 family and no relevant enzyme activity of the CYP11 family (in comparison to H295R cells) was detected in these cells. Therefore the G-402 cell line is uniquely suited as a host cell for the ectopic expression of enzymes from the CYP11 family.
(§2) The expression plasmids contains the ORF for either huma/cyno CYP11B1 or CYP11B2 under the control of a suitable promoter (CMV-promoter) and a suitable resistance marker (neomycin). Using standard techniques the expression plasmid is transfected into G-402 cells and these cells are then selected for expressing the given resistance markers. Individual cell-clones are then selected and assessed for displaying the desired enzymatic activity using 11-Deoxycorticosterone (Cyp11B2) or 11-Deoxycortisol (Cyp11B1) as a substrate.
(§3) G-402 cells expressing CYP11 constructs were established as described above and maintained in McCoy's 5a Medium Modified, ATCC Catalog No. 30-2007 containing 10% FCS and 400 μg/ml G418 (Geneticin) at 37° C. under an atmosphere of 5% CO2/95% air. Cellular enzyme assays were performed in DMEM/F12 medium containing 2.5% charcoal treated FCS and appropriate concentration of substrate (0.3-10 uM 11-Deoxycorticosterone, 11-Deoxycortisol or Corticosterone). For assaying enzymatic activity, cells were plated onto 96 well plates and incubated for 16 h. An aliquot of the supernatant is then transferred and analyzed for the concentration of the expected product (Aldosterone for CYP11B2; Cortisol for CYP11B1). The concentrations of these steroids can be determined using HTRF assays from CisBio analyzing either Aldosterone or Cortisol.
(§4) Inhibition of the release of produced steroids can be used as a measure of the respective enzyme inhibition by test compounds added during the cellular enzyme assay. The dose dependent inhibition of enzymatic activity by a compound is calculated by means of plotting added inhibitor concentrations (x-axes) vs. measured steroid/product level (y-axes). The inhibition is then calculated by fitting the following 4-parameter sigmoidal function (Morgan-Mercer-Flodin (MMF) model) to the raw data points using the least squares method:
(§5) [formula] wherein, A is the maximum y value, B is the EC50 factor determined using XLFit, C is the minimum y value and D is the slope value.
(§6) EC50 values for compounds claimed herein were tested with the G402-based assay system described. Cyp11B2 enzyme activity was tested in presence of 1 μM Deoxycorticosterone and variable amounts of inhibitors; Cyp11B1 enzyme activity was tested in presence of 1 μM Deoxycortisol and variable amounts of inhibitors.
On the technique in general: Time-resolved FRET reads energy transfer from a long-lived donor to a nearby acceptor.

The target in another assay is human CYP11B1 (Homo sapiens (Human), UniProt P15538). Kind of assay: G-402 cellular enzyme assay, human CYP11B1 (cortisol release, HTRF). Type of assay: cell-based. The conditions noted are these: G-402 cells expressing human CYP11B1; 1 μM Deoxycortisol.
Text: as §1, §2, §3, §4, §5, §6

Sequence of human CYP11B2 (P19099 25-503): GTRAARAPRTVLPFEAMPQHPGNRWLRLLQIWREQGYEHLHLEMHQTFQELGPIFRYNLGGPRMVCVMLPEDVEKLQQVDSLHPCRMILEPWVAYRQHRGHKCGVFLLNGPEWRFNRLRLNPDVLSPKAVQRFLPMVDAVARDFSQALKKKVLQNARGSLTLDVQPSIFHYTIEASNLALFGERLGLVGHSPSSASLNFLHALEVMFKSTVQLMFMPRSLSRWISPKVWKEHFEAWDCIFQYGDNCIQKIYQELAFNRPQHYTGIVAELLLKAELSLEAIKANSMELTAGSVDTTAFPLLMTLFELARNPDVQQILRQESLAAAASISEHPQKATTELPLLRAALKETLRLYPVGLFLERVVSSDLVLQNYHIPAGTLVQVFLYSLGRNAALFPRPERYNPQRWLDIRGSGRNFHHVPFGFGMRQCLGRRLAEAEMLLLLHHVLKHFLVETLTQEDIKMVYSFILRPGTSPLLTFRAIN
Sequence of human CYP11B1 (P15538 25-503): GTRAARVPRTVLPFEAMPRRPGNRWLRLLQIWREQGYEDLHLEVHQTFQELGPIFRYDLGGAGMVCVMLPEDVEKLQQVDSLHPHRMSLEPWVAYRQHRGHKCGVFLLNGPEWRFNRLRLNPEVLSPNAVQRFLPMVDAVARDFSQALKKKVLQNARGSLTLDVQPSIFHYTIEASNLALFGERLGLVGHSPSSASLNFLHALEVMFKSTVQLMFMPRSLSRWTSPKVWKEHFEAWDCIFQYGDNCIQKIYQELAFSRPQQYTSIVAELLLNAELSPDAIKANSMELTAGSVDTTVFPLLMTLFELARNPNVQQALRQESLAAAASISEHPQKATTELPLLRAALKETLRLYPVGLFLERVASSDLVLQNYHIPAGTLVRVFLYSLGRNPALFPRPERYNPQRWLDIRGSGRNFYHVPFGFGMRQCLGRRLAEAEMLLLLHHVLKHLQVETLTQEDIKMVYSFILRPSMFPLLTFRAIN

Turning to `N#Cc1ccc([C@H]2CCCc3cncn32)cc1` [FAD286], in assay [1], the plasma aldosterone result is “reduced”; the “renal effects (albuminuria, azotemia, renovascular hypertrophy, glomerular injury, PAI-1 and osteopontin mRNA, tubulointerstitial fibrosis)” value is reported as “prevented these renal effects”; the “angiotensin II and salt-stimulated PAI-1 mRNA expression in the aorta and the heart” value was “not”. In addition, in assay [2], the “blood pressure and cardiovascular function and structure” value is reported as “improved”; the “kidney function and morphology” value was “improve”.

Turning to `N#Cc1ccc([C@H]2CCc3cncn32)c(F)c1` [LCI699], the “selectivity (effects on the glucocorticoid axis)” value in assay [3] was “poor selectivity”. In assay [3] (oral), the blood pressure result is “mildly decreased”, the circulating aldosterone levels result is “significantly lower” and the hypokalemia entry was “corrected”.

Usually EC50 stands for the concentration giving half of the maximal effect. A higher EC50 goes with a less potent agent. As to `Cc1ccnc(OCc2cncc(-c3ccc4c(c3)CCC(=O)N4C)c2)c1` [Example 5, 1-Methyl-6-[5-(4-methyl-pyridin-2-yloxymethyl)-pyridin-3-yl]-3,4-dihydro-1H-quinolin-2-one], the figures for the EC50 at human CYP11B2 and on human CYP11B1 were 0.1 nM and 1.7 nM, respectively.

For `Cc1cccc(SCc2cncc(-c3ccc4c(c3)CCC(=O)N4C)c2)n1` [Example 14, 1-Methyl-6-[5-(6-methyl-pyridin-2-ylsulfanylmethyl)-pyridin-3-yl]-3,4-dihydro-1H-quinolin-2-one], the EC50 amounted to 0.012 nM on human CYP11B2 and 0.1 nM on human CYP11B1.

Take `CN1C(=O)CCc2cc(-c3cncc(COc4cc(C#N)ccn4)c3)ccc21` [Example 17, 2-[5-(1-Methyl-2-oxo-1,2,3,4-tetrahydro-quinolin-6-yl)-pyridin-3-ylmethoxy]-isonicotinonitrile]: the results for the EC50 at human CYP11B2 and on human CYP11B1 were 0.2 nM and 0.9 nM, respectively.

In the case of `CC(=O)S[C@@H]1CC2=CC(=O)CC[C@]2(C)[C@H]2CC[C@@]3(C)[C@@H](CC[C@@]34CCC(=O)O4)[C@H]12` [spironolactone], in assay [1], the plasma aldosterone entry is “increased”; the “renal effects (albuminuria, azotemia, renovascular hypertrophy, glomerular injury, PAI-1 and osteopontin mRNA, tubulointerstitial fibrosis)” value is reported as “prevented these renal effects”; the “angiotensin II and salt-stimulated PAI-1 mRNA expression in the aorta and the heart” value is given as “enhanced”.

Regarding `CN1C(=O)CCc2cc(-c3cncc(COc4ncccc4F)c3)c(F)cc21` [Example 19, 7-Fluoro-6-[5-(3-fluoro-pyridin-2-yloxymethyl)-pyridin-3-yl]-1-methyl-3,4-dihydro-1H-quinolin-2-one], the figures for the half-maximal effective concentration (EC50) at human CYP11B2 and on human CYP11B1 were 14.1 nM and 997 nM, respectively.
